Tests used:
[1] = biological target: affinity-purified polyclonal antibody specific for MAA adducts; assay: Competitive ELISA: inhibition of MAA-specific antibody binding to solid-phase BSA-MAA; parameters: species or system rabbit; settings: for 50% inhibitory concentration: bovine serum albumin-MAA as solid phase antigen
Description: A competitive ELISA was developed in order to detect the presence and to quantify the level of MDA/acetaldehyde modified proteins. Following the basic methodology developed by Roberts, et al, “A Sensitive Immunochemical Assay for Acetaminophen-Protein Adducts”, J Pharmacol Exp Ther, 1987; 241:527-533; Pumford, et al, “Immunochemical Quantitation of 3-(cystein-S-yl)Acetaminophen Adducts in Serum and Liver Proteins of Acetaminophen-Treated Mice”, J Pharmacol Exp Ther, 1989; 248:190-196, incorporated herein by reference, these assays were conducted by allowing a limiting amount of antibody to react with inhibitor, either standard or unknown, in the presence of excess solid phase antigen (MDA/acetaldehyde modified proteins). […] Biotinylated antibody (1/500 final dilution) was incubated with varying concentrations of test samples (standards or unknowns) overnight at 4° C., and then a 100 μl-aliquot of each sample was added to duplicate wells of the coated plates and incubated for 45 minutes at 37° C. After washing, 100 μl of alkaline phosphatase-conjugated streptavidin was added, and procedures as described above for the Direct ELISA were used to obtain optical density measurements. […] [formula]
where ODmax is OD in the absence of inhibitor, BKG is OD from nonspecific absorption of assay reagents and ODsample is the OD for a given concentration of standard or unknown sample.
An immunological assay, using an affinity-purified polyclonal antibody specific for MAA adducts, was employed to detect the presence of these adducts in livers of ethanol-fed rats. Since MAA adducts are likely composed of more than one distinct product, applicants proposed that 4-methyl-1,4-dihydropyridine-3,5-dicarbaldehyde (MDDC), derivatized to an ε-amino group of lysine, represents a structure for one of the major MAA-protein adducts. The purpose of this study was to characterize the antigen binding properties of the MAA specific antibody and determine whether MDDC epitopes are a major determinant of antibody recognition. A competitive ELISA, utilizing bovine serum albumin-MAA as the solid phase antigen, was used to test the binding specificity of the antibody.

[2] = biological target: T1, bovine serum albumin (BSA) (Bos taurus, UniProt P02769); assay: Stable binding of acetaldehyde to proteins in the presence of MDA; assay type: biochemical; settings: acetaldehyde 1 mM, 24 hours of incubation, 4-fold molar excess of MDA
T1 construct: purchased Sigma Chemical Co. (St. Louis, Mo.)
T1 sequence (P02769 25-607): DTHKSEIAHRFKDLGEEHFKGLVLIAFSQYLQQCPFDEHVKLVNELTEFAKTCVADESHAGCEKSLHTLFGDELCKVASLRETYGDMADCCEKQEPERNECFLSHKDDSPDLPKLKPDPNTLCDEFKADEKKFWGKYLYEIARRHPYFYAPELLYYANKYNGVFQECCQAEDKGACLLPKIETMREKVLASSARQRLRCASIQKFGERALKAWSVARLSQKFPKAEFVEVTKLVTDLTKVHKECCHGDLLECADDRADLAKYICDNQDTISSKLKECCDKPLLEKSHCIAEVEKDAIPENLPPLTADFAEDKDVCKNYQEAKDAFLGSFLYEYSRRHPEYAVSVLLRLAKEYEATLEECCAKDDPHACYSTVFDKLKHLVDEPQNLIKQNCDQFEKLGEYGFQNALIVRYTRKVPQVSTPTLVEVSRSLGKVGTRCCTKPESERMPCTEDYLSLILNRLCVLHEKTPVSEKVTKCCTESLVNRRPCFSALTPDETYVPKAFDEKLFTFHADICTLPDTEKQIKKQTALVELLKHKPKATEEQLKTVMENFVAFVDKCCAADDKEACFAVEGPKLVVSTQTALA
Protocol: Concentrations of acetaldehyde (0.1 mM or 1.0 mM) were incubated with various protein solutions in the absence and presence of varying concentrations of MDA. Incubations were conducted in phosphate buffer (0.1 M, pH 7.4) at 37° C. in polypropylene vessels that were sealed to minimize the loss of volatile radioactivity. The reactions were performed under nitrogen gas in the dark. During a 72-hr incubation period, aliquots were removed for stable acetaldehyde binding determinations and fluorescence measurements as previously described. Hoffmann, “Reaction of Acetaldehyde with Proteins: Formation of Stable Fluorescent Adducts”, Alcohol Clin Exp Res, 1993; 17:69-74. Briefly, postincubation, free and unstable-bound acetaldehyde were separated by exhaustive dialysis against phosphate buffer for 24 hours at 4° C. Radioactivity was then measured in the retenate and represented stably bound acetaldehyde. Results are expressed as nmoles acetaldehyde bound per mg of protein. Fluorescence measurements were obtained on post-dialysis samples using a Perkin Elmer LS-5B spectrophotofluorometer attached to a Perkin Elmer GP-100 graphics printer.
When acetaldehyde (1 mM) was incubated with bovine serum albumin (BSA) in the presence of varying concentrations of MDA over a 72-hour time course, MDA markedly stimulated the binding of acetaldehyde to BSA in a concentration-dependent manner. […]

[3] = tested on: Balc/c mice; assay: Immunization of mice with BSA or BSA-MAA, antiserum titration by ELISA; assay type: in vivo; settings: antiserum tested on MSA and MSA-MAA
Protocol: The purpose of this study was to determine how modification of a soluble carrier protein with the MAA adduct alters the humoral immune response. Balc/c mice were immunized weekly by i.p. injection with 100 μg of either bovine serum albumin unmodified (BSA) or modified with MAA (BSA-MAA). Titration of antiserum was performed by ELISA on wells coated with either BSA, BSA-MAA, mouse albumin (MSA) and MSA-MAA. […] In mice immunized with lower concentrations of BSA-MAA, antibody titers decreased in a dose dependent manner to both BSA and BSA-MAA (>1:3200 at 100 μg to 1:2000 at 25 μg).

`CCCCCCN1C=C(C=O)C(C)C(C=O)=C1` [1-hexyl-MDDC] was tested, and the 50% inhibitory concentration [1] was 4 pmoles/well.

`CC1C(C=O)=CNC=C1C=O` [1-hydrogen MDDC, 4-methyl-1,4-dihydropyridine-3,5-dicarbaldehyde] was tested, and the 50% inhibitory concentration [1] was 240 pmoles/well.

Molecule `CC1C(C=O)=CN(C)C=C1C=O` [1-methyl MDDC] has a 50% inhibitory concentration [1] of 14 pmoles/well.

In the case of `O=CCC=O` [MDA, malondialdehyde], the “stimulation of acetaldehyde binding to BSA” value [2] is reported as 13 fold.

For `NC(=O)C1=CN([C@@H]2O[C@H](COP(=O)(O)OP(=O)(O)OC[C@H]3O[C@@H](n4cnc5c(N)ncnc54)[C@H](O)[C@@H]3O)[C@@H](O)[C@H]2O)C=CC1` [NADH, reference compound], the “inhibition of antibody binding” value [1] was “negligible inhibitions”.

`Cc1ncc(CO)c(C=O)c1O` [pyridoxal, reference compound] was tested, and the “inhibition of antibody binding” value [1] was “negligible inhibitions”.

In the case of “BSA-MAA: bovine serum albumin modified with MAA (malondialdehyde-acetaldehyde adduct)”, the “antibody titer to the MAA adduct (tested on MSA-MAA)” value [3] is reported as “significant antibody titer” and the “response to the autologous protein (MSA)” value [3] is reported as “no response”.
